Measurements taken from PubChem BioAssay (NCI).
Values joined by “and” are separate entries in the source; they are usually repeats but may differ in a detail not shown here. Identical values can stand only once.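 These data come from cells grown in 96-well plates and exposed to compound for 48 hours at five concentrations. At the GI50, growth is halved. TGI: concentration producing complete growth inhibition.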

Tests used:
Experiment in all cases: NCI-60 cell line screen, 48 h
MDA-MB-231 breast = tested on: MDA-MB-231 breast
SN12C renal = tested on: SN12C renal
UACC-257 melanoma = tested on: UACC-257 melanoma
CAKI-1 renal = tested on: CAKI-1 renal
DU-145 prostate = tested on: DU-145 prostate
KM12 colon = tested on: KM12 colon
ACHN renal = tested on: ACHN renal
SF-268 CNS = tested on: SF-268 CNS
UO-31 renal = tested on: UO-31 renal
HL-60(TB) leukemia = tested on: HL-60(TB) leukemia
SK-MEL-5 melanoma = tested on: SK-MEL-5 melanoma
K-562 leukemia = tested on: K-562 leukemia
NCI-H522 lung = tested on: NCI-H522 lung
NCI-H460 lung = tested on: NCI-H460 lung
RXF 393 renal = tested on: RXF 393 renal
SF-295 CNS = tested on: SF-295 CNS
OVCAR-3 ovarian = tested on: OVCAR-3 ovarian
HCT-116 colon = tested on: HCT-116 colon
MDA-MB-435 = tested on: MDA-MB-435
OVCAR-5 ovarian = tested on: OVCAR-5 ovarian
U251 CNS = tested on: U251 CNS
SK-MEL-2 melanoma = tested on: SK-MEL-2 melanoma
NCI-H23 lung = tested on: NCI-H23 lung
786-0 renal = tested on: 786-0 renal
CCRF-CEM leukemia = tested on: CCRF-CEM leukemia
SF-539 CNS = tested on: SF-539 CNS
HCC-2998 colon = tested on: HCC-2998 colon
RPMI-8226 leukemia = tested on: RPMI-8226 leukemia
A549 NSCLC = tested on: A549 NSCLC
PC-3 prostate = tested on: PC-3 prostate
HOP-92 NSCLC = tested on: HOP-92 NSCLC
MOLT-4 leukemia = tested on: MOLT-4 leukemia
M14 melanoma = tested on: M14 melanoma
SW-620 colon = tested on: SW-620 colon
HCT-15 colon = tested on: HCT-15 colon
T-47D breast = tested on: T-47D breast
OVCAR-4 ovarian = tested on: OVCAR-4 ovarian
HOP-62 NSCLC = tested on: HOP-62 NSCLC
A498 renal = tested on: A498 renal
UACC-62 melanoma = tested on: UACC-62 melanoma
SNB-75 CNS = tested on: SNB-75 CNS
TK-10 renal = tested on: TK-10 renal
SNB-19 CNS = tested on: SNB-19 CNS
NCI-H226 lung = tested on: NCI-H226 lung
HS 578T breast = tested on: HS 578T breast
BT-549 breast = tested on: BT-549 breast
IGROV1 ovarian = tested on: IGROV1 ovarian
HT29 colon = tested on: HT29 colon
SK-OV-3 ovarian = tested on: SK-OV-3 ovarian
SK-MEL-28 melanoma = tested on: SK-MEL-28 melanoma
NCI/ADR-RES ovarian = tested on: NCI/ADR-RES ovarian
LOX IMVI melanoma = tested on: LOX IMVI melanoma
SR leukemia = tested on: SR leukemia
OVCAR-8 ovarian = tested on: OVCAR-8 ovarian
EKVX NSCLC = tested on: EKVX NSCLC
COLO 205 colon = tested on: COLO 205 colon
MCF7 breast = tested on: MCF7 breast
MALME-3M melanoma = tested on: MALME-3M melanoma

With `CO[C@@H](C(=O)N1Cc2[nH]nc(NC(=O)c3ccc(N4CCN(C)CC4)cc3)c2C1)c1ccccc1` the GI50 (MDA-MB-231 breast) was 562 nM and 142 nM, the TGI (MDA-MB-231 breast) was > 70500 nM and the TGI (SN12C renal) was > 100000 nM. For the same compound, the GI50 (UACC-257 melanoma) was 613 nM and 1060 nM, the TGI (UACC-257 melanoma) was 18900 nM and > 10000 nM and the GI50 (CAKI-1 renal) was 19600 nM and > 10000 nM. The TGI (CAKI-1 renal) was > 91400 nM, the GI50 (DU-145 prostate) was 2020 nM and 1930 nM and the TGI (DU-145 prostate) was 17900 nM and > 10000 nM. For the same compound, the GI50 (KM12 colon) was 216 nM and 125 nM, the TGI (KM12 colon) was 7090 nM and > 8180 nM and the GI50 (ACHN renal) was 4970 nM and 6660 nM. The TGI (ACHN renal) was > 69600 nM, the GI50 (SF-268 CNS) was 1060 nM and 889 nM and the TGI (SF-268 CNS) was 8080 nM and 4640 nM. For the same compound, the GI50 (UO-31 renal) was 9330 nM and 3670 nM, the TGI (UO-31 renal) was 33800 nM and > 10000 nM and the GI50 (HL-60(TB) leukemia) was 3250 nM and 4350 nM. For the same compound, the TGI (HL-60(TB) leukemia) was 28300 nM and > 10000 nM, the GI50 (SK-MEL-5 melanoma) was 1650 nM and 2760 nM and the TGI (SK-MEL-5 melanoma) was 12100 nM and > 10000 nM. For the same compound, the GI50 (K-562 leukemia) was 106 nM and 54.7 nM, the TGI (K-562 leukemia) was > 100000 nM and the GI50 (NCI-H522 lung) was 469 nM and 163 nM. The TGI (NCI-H522 lung) was 45500 nM and > 10000 nM, the GI50 (NCI-H460 lung) was 224 nM and 99.7 nM and the TGI (NCI-H460 lung) was 18000 nM and > 10000 nM. For the same compound, the GI50 (RXF 393 renal) was 593 nM and 312 nM, the TGI (RXF 393 renal) was 3720 nM and 2090 nM and the GI50 (SF-295 CNS) was 715 nM and 146 nM. The TGI (SF-295 CNS) was > 100000 nM, the GI50 (OVCAR-3 ovarian) was 866 nM and 1130 nM and the TGI (OVCAR-3 ovarian) was > 87000 nM. The GI50 (HCT-116 colon) was 117 nM and 87.9 nM, the TGI (HCT-116 colon) was 6670 nM and > 8710 nM and the GI50 (MDA-MB-435) was 2690 nM and 3080 nM. For the same compound, the TGI (MDA-MB-435) was 17400 nM and > 10000 nM, the GI50 (OVCAR-5 ovarian) was 1350 nM and 850 nM and the TGI (OVCAR-5 ovarian) was > 68800 nM. The GI50 (U251 CNS) was 2160 nM and 1510 nM, the TGI (U251 CNS) was > 50100 nM and the GI50 (SK-MEL-2 melanoma) was 4330 nM and 6860 nM. For the same compound, the TGI (SK-MEL-2 melanoma) was 33100 nM and > 10000 nM, the GI50 (NCI-H23 lung) was 764 nM and 609 nM and the TGI (NCI-H23 lung) was 23700 nM and > 10000 nM. The GI50 (786-0 renal) was 2550 nM and 2000 nM, the TGI (786-0 renal) was 31400 nM and > 10000 nM and the TGI (CCRF-CEM leukemia) was > 100000 nM. The GI50 (SF-539 CNS) was 459 nM and 105 nM, the TGI (SF-539 CNS) was 12000 nM and 5630 nM and the GI50 (HCC-2998 colon) was 525 nM and 503 nM. The TGI (HCC-2998 colon) was 46000 nM and > 10000 nM, the GI50 (RPMI-8226 leukemia) was 7040 nM and 5810 nM and the TGI (RPMI-8226 leukemia) was > 52500 nM. The GI50 (A549 NSCLC) was 419 nM and 158 nM, the TGI (A549 NSCLC) was > 69600 nM and the GI50 (PC-3 prostate) was 1530 nM and 2530 nM. For the same compound, the TGI (PC-3 prostate) was 40700 nM and > 10000 nM, the GI50 (HOP-92 NSCLC) was 153 nM and 63.9 nM and the TGI (HOP-92 NSCLC) was 731 nM and 1240 nM. For the same compound, the GI50 (MOLT-4 leukemia) was 12600 nM and 2300 nM, the TGI (MOLT-4 leukemia) was > 81100 nM and the GI50 (M14 melanoma) was 3730 nM and 2340 nM. The TGI (M14 melanoma) was 23400 nM and > 10000 nM, the GI50 (SW-620 colon) was 314 nM and 129 nM and the TGI (SW-620 colon) was 22300 nM and > 10000 nM. For the same compound, the GI50 (HCT-15 colon) was 18800 nM and > 10000 nM, the TGI (HCT-15 colon) was > 100000 nM and the GI50 (T-47D breast) was 792 nM and 538 nM. For the same compound, the TGI (T-47D breast) was 69300 nM and > 10000 nM, the GI50 (OVCAR-4 ovarian) was 610 nM and 2820 nM and the TGI (OVCAR-4 ovarian) was > 52400 nM. The GI50 (HOP-62 NSCLC) was 1040 nM and 585 nM, the TGI (HOP-62 NSCLC) was 19300 nM and > 10000 nM and the GI50 (A498 renal) was 69.6 nM and 317 nM. The TGI (A498 renal) was 1320 nM and 3620 nM, the GI50 (UACC-62 melanoma) was 548 nM and 482 nM and the TGI (UACC-62 melanoma) was 50500 nM and > 10000 nM. For the same compound, the GI50 (SNB-75 CNS) was 215 nM, the TGI (SNB-75 CNS) was 1660 nM and the GI50 (TK-10 renal) was 3280 nM and 2780 nM. For the same compound, the TGI (TK-10 renal) was 67200 nM and > 10000 nM, the GI50 (SNB-19 CNS) was 4020 nM and 2930 nM and the TGI (SNB-19 CNS) was > 100000 nM. The GI50 (NCI-H226 lung) was 360 nM and 80.4 nM, the TGI (NCI-H226 lung) was 49300 nM and > 8910 nM and the GI50 (HS 578T breast) was 1370 nM and 232 nM. The TGI (HS 578T breast) was 7920 nM and 859 nM, the GI50 (BT-549 breast) was 809 nM and 1390 nM and the TGI (BT-549 breast) was 5900 nM and > 10000 nM. The GI50 (IGROV1 ovarian) was 282 nM and 62.4 nM, the TGI (IGROV1 ovarian) was 3010 nM and 2950 nM and the GI50 (HT29 colon) was 713 nM and 658 nM. The TGI (HT29 colon) was 2650 nM and 8970 nM, the GI50 (SK-OV-3 ovarian) was 591 nM and 863 nM and the TGI (SK-OV-3 ovarian) was > 41200 nM. For the same compound, the GI50 (SK-MEL-28 melanoma) was 3110 nM and 2720 nM, the TGI (SK-MEL-28 melanoma) was 20900 nM and > 10000 nM and the GI50 (NCI/ADR-RES ovarian) was > 100000 nM. For the same compound, the TGI (NCI/ADR-RES ovarian) was > 100000 nM, the GI50 (LOX IMVI melanoma) was 255 nM and 82.5 nM and the TGI (LOX IMVI melanoma) was 2050 nM and 1820 nM. The GI50 (SR leukemia) was 56.9 nM and 39.5 nM, the TGI (SR leukemia) was > 35600 nM and the GI50 (OVCAR-8 ovarian) was 2270 nM and 1840 nM. The TGI (OVCAR-8 ovarian) was > 100000 nM, the GI50 (EKVX NSCLC) was 1730 nM and 1890 nM and the TGI (EKVX NSCLC) was 37600 nM and > 10000 nM. The GI50 (COLO 205 colon) was 48.3 nM and 39.5 nM, the TGI (COLO 205 colon) was 1030 nM and 625 nM and the GI50 (MCF7 breast) was 104 nM and 73.6 nM. For the same compound, the TGI (MCF7 breast) was 23100 nM and > 10000 nM, the GI50 (MALME-3M melanoma) was 509 nM and 4410 nM and the TGI (MALME-3M melanoma) was 22900 nM and > 10000 nM.
